From ChEMBL document CHEMBL4229519, “Design, synthesis, and activity evaluation of novel erythropoietin mimetic peptides” (Bioorg Med Chem Lett, 2018)
One block for each compound: values may come before it. Bridge positions count the residues as written; N and C are the ends. Square brackets hold non-standard residues; d marks the D form. Peptide text beside a SMILES is read from it. 1Nal = N[C@@H](Cc1cccc2ccccc12)C(=O)O; Cit = NC(=O)NCCC[C@H](N)C(=O)O; NMeA = CN[C@@H](C)C(=O)O; Sar = CNCC(=O)O

What was measured:
Mus musculus [1] = assay: Antianemic activity in mouse assessed as reticulocyte level at 2.1 umol/kg, sc administered once daily for 7 consecutive days (reference value: 0.46 +/- 0.11 10^12/L); type: functional
Mus musculus [2] = assay: Antianemic activity in mouse assessed as RBC level at 2.1 umol/kg, sc administered once daily for 7 consecutive days (reference value: 8.74 +/- 0.58 10^12/L); type: functional
Mus musculus [3] = assay: Toxicity in mouse assessed as increase in body weight at 2.1 umol/kg, sc administered once daily for 7 consecutive days measured on day 5 during compound dosing relative to control; type: organism-based; conditions: in vivo
Mus musculus [4] = assay: Toxicity in mouse assessed as body weight at 2.1 umol/kg, sc administered once daily for 7 consecutive days measured on day 1 during compound dosing (reference value: 24.5 +/- 1.1 g); type: organism-based; conditions: in vivo
Mus musculus [5] = assay: Toxicity in mouse assessed as increase in body weight at 2.1 umol/kg, sc administered once daily for 7 consecutive days measured on day 3 during compound dosing relative to control; type: organism-based; conditions: in vivo
Mus musculus [6] = assay: Antianemic activity in mouse assessed as hematocrit by measuring ratio of RBC volume to total blood volume at 2.1 umol/kg, sc administered once daily for 7 consecutive days (reference value: 0.476 +/- 0.024); type: functional
Mus musculus [7] = assay: Toxicity in mouse assessed as increase in body weight at 2.1 umol/kg, sc administered once daily for 7 consecutive days measured on day 7 during compound dosing relative to control; type: organism-based; conditions: in vivo
Mus musculus [8] = assay: Effect on WBC level in mouse at 2.1 umol/kg, sc administered once daily for 7 consecutive days (reference value: 5.84 +/- 1.43 10^9/L); type: ADME, organism-based; conditions: in vivo
Mus musculus [9] = assay: Antianemic activity in mouse assessed as hemoglobin level at 2.1 umol/kg, sc administered once daily for 7 consecutive days (reference value: 135.1 +/- 9.5 g/L); type: functional
Erythropoietin receptor = biological target: T1, Erythropoietin receptor (Homo sapiens, UniProt P19235); assay: Agonist activity at EPO receptor in human TF1 cells assessed as induction of cell proliferation after 48 hrs by MTT assay; type: cell-based
T1 sequence (P19235 whole entry): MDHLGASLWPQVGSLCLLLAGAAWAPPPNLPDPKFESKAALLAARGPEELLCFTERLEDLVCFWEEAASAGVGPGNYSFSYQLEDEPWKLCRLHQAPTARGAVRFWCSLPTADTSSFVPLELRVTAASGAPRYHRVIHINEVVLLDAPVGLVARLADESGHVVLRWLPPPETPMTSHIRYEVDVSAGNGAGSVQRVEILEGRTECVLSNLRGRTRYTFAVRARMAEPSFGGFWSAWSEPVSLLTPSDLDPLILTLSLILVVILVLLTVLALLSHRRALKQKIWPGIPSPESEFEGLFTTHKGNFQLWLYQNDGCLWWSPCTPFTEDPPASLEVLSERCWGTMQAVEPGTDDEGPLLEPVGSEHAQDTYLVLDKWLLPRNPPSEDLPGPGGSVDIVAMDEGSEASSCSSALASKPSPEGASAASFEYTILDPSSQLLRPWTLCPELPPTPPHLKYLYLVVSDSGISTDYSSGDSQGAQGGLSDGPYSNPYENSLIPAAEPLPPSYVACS

Structure (SMILES): CC[C@H](C)[C@@H]1NC(=O)[C@@H]2CCCN2C(=O)CNC(=O)[C@H](CCSC)NC(=O)[C@H](Cc2cnc[nH]2)NC(=O)[C@@H](NC(=O)[C@H](C)NC(=O)[C@H](Cc2ccc(O)cc2)NC(=O)[C@H](CC(C)C)NC(=O)CNC(=O)CNC(C)=O)CSSC[C@@H](C(=O)N[C@@H](CCC(N)=O)C(=O)N(C)[C@@H](C)C(=O)N[C@@H](CC(C)C)C(=O)N[C@@H](CCCNC(=N)N)C(=O)N(C)CC(=O)N[C@@H](CCCCN)C(N)=O)NC(=O)[C@H](C(C)C)NC(=O)[C@H](Cc2cccc3ccccc23)NC(=O)[C@H]([C@@H](C)O)NC1=O (Ac-GGLYACHMGPIT[1Nal]VCQ[NMeA]LR[Sar]K-NH2; disulfide 6-15)
Activity (Mus musculus [1]): 0.65 ×10¹² /L
Activity (Mus musculus [2]): 9.14 ×10¹² /L
Activity (Mus musculus [3]): 15.3%
Activity (Mus musculus [4]): 24.7 g
Activity (Mus musculus [5]): 11%
Ratio (Mus musculus [6]): 0.493
Activity (Mus musculus [7]): 19.1%
Activity (Mus musculus [8]): 5.45 ×10⁹ /L
Activity (Mus musculus [9]): 146.4 g/L

Structure (SMILES): CC[C@H](C)[C@@H]1NC(=O)[C@@H]2CCCN2C(=O)CNC(=O)[C@H](CCSC)NC(=O)[C@H](Cc2cnc[nH]2)NC(=O)[C@@H](NC(=O)[C@H](C)NC(=O)[C@H](Cc2ccc(O)cc2)NC(=O)[C@H](CC(C)C)NC(=O)CNC(=O)CNC(C)=O)CSSC[C@@H](C(=O)N[C@@H](CCC(N)=O)C(=O)N2CCC[C@H]2C(=O)N[C@@H](CC(C)C)C(=O)N[C@@H](CCCNC(N)=O)C(=O)N(C)CC(=O)N[C@@H](CCCCN)C(N)=O)NC(=O)[C@H](C(C)C)NC(=O)[C@H](Cc2cccc3ccccc23)NC(=O)[C@H]([C@@H](C)O)NC1=O (Ac-GGLYACHMGPIT[1Nal]VCQPL[Cit][Sar]K-NH2; disulfide 6-15)
Activity (Mus musculus [1]): 0.89 ×10¹² /L
Activity (Mus musculus [2]): 9.67 ×10¹² /L
Activity (Mus musculus [3]): 16.9%
Activity (Mus musculus [4]): 25.5 g
Activity (Mus musculus [5]): 11.7%
Ratio (Mus musculus [6]): 0.535
Activity (Mus musculus [7]): 21.7%
Activity (Mus musculus [8]): 6.48 ×10⁹ /L
Activity (Mus musculus [9]): 158.1 g/L

Structure (SMILES): CC[C@H](C)[C@@H]1NC(=O)[C@H](C)N(C)C(=O)CNC(=O)[C@H](CCSC)NC(=O)[C@H](Cc2cnc[nH]2)NC(=O)[C@@H](NC(=O)[C@H](C)NC(=O)[C@H](Cc2ccc(O)cc2)NC(=O)[C@H](CC(C)C)NC(=O)CNC(=O)CNC(C)=O)CSSC[C@@H](C(=O)N[C@@H](CCC(N)=O)C(=O)N2CCC[C@H]2C(=O)N[C@@H](CC(C)C)C(=O)N[C@@H](CCCNC(=N)N)C(=O)N(C)CC(=O)N[C@@H](CCCCN)C(N)=O)NC(=O)[C@H](C(C)C)NC(=O)[C@H](Cc2cccc3ccccc23)NC(=O)[C@H]([C@@H](C)O)NC1=O (Ac-GGLYACHMG[NMeA]IT[1Nal]VCQPLR[Sar]K-NH2; disulfide 6-15)
Activity (Mus musculus [1]): 0.66 ×10¹² /L
Activity (Mus musculus [2]): 9.15 ×10¹² /L
Activity (Mus musculus [3]): 19.5%
Activity (Mus musculus [4]): 24.7 g
Activity (Mus musculus [5]): 12.7%
Ratio (Mus musculus [6]): 0.498
Activity (Mus musculus [7]): 27.2%
Activity (Mus musculus [8]): 5.64 ×10⁹ /L
Activity (Mus musculus [9]): 144.4 g/L

Continued, in another order:

EC50 (Erythropoietin receptor): Not Active
Structure (SMILES): CC[C@H](C)[C@@H]1NC(=O)[C@@H]2CCCN2C(=O)CNC(=O)[C@H](CCSC)NC(=O)[C@H](Cc2cnc[nH]2)NC(=O)[C@@H](NC(=O)[C@H](C)NC(=O)[C@@H](Cc2ccc(O)cc2)NC(=O)[C@H](CC(C)C)NC(=O)CNC(=O)CNC(C)=O)CSSC[C@@H](C(=O)N[C@@H](CCC(N)=O)C(=O)N2CCC[C@H]2C(=O)N[C@@H](CC(C)C)C(=O)N[C@@H](CCCNC(=N)N)C(=O)N(C)CC(=O)N[C@@H](CCCCN)C(N)=O)NC(=O)[C@H](C(C)C)NC(=O)[C@H](Cc2cccc3ccccc23)NC(=O)[C@H]([C@@H](C)O)NC1=O

Activity (Mus musculus [8]): 5.11 ×10⁹ /L
Structure (SMILES): CC[C@H](C)[C@@H]1NC(=O)[C@@H]2CCCN2C(=O)CNC(=O)[C@H](CCSC)NC(=O)[C@H](Cc2cnc[nH]2)NC(=O)[C@@H](NC(=O)[C@H](C)NC(=O)[C@H](Cc2ccc(O)cc2)NC(=O)[C@H](CC(C)C)NC(=O)CNC(=O)CNC(C)=O)CSSC[C@@H](C(=O)N[C@@H](CCC(N)=O)C(=O)N2CCC[C@H]2C(=O)N[C@@H](CC(C)C)C(=O)N[C@@H](CCCNC(=N)N)C(=O)N(C)CC(=O)N[C@@H](CCCCN)C(N)=O)NC(=O)[C@H](C(C)C)NC(=O)[C@H](Cc2cccc3ccccc23)NC(=O)[C@H]([C@@H](C)O)NC1=O
Activity (Mus musculus [1]): 0.7 ×10¹² /L
Activity (Mus musculus [2]): 9.17 ×10¹² /L
Activity (Mus musculus [3]): 16.3%
Activity (Mus musculus [4]): 24.9 g
Activity (Mus musculus [5]): 12.5%
Ratio (Mus musculus [6]): 0.493
Activity (Mus musculus [7]): 22.6%
Activity (Mus musculus [9]): 149.9 g/L

EC50 (Erythropoietin receptor): Not Active
Structure (SMILES): CC[C@H](C)[C@@H]1NC(=O)[C@@H]2CCCN2C(=O)CNC(=O)[C@@H](CCSC)NC(=O)[C@H](Cc2cnc[nH]2)NC(=O)[C@@H](NC(=O)[C@H](C)NC(=O)[C@H](Cc2ccc(O)cc2)NC(=O)[C@H](CC(C)C)NC(=O)CNC(=O)CNC(C)=O)CSSC[C@@H](C(=O)N[C@@H](CCC(N)=O)C(=O)N2CCC[C@H]2C(=O)N[C@@H](CC(C)C)C(=O)N[C@@H](CCCNC(=N)N)C(=O)N(C)CC(=O)N[C@@H](CCCCN)C(N)=O)NC(=O)[C@H](C(C)C)NC(=O)[C@H](Cc2cccc3ccccc23)NC(=O)[C@H]([C@@H](C)O)NC1=O

EC50 (Erythropoietin receptor): Not Active
Structure (SMILES): CC[C@H](C)[C@@H]1NC(=O)[C@@H]2CCCN2C(=O)CNC(=O)[C@H](CCSC)NC(=O)[C@H](Cc2cnc[nH]2)NC(=O)[C@@H](NC(=O)[C@@H](C)NC(=O)[C@H](Cc2ccc(O)cc2)NC(=O)[C@H](CC(C)C)NC(=O)CNC(=O)CNC(C)=O)CSSC[C@@H](C(=O)N[C@@H](CCC(N)=O)C(=O)N2CCC[C@H]2C(=O)N[C@@H](CC(C)C)C(=O)N[C@@H](CCCNC(=N)N)C(=O)N(C)CC(=O)N[C@@H](CCCCN)C(N)=O)NC(=O)[C@H](C(C)C)NC(=O)[C@H](Cc2cccc3ccccc23)NC(=O)[C@H]([C@@H](C)O)NC1=O
